Experimental data reported in PubChem BioAssay (NCI).
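Grown in 96-well plates, cells were treated for 48 hours with each compound at five concentrations. Insufficient inhibition: endpoint recorded as highest concentration tested. GI50 = concentration required for 50% inhibition of growth. TGI: concentration producing complete growth inhibition.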

Columns and labels:
Test in all cases: NCI tumour cell line growth inhibition, 48 h
U251 CNS = tested on: U251 CNS
RPMI-8226 leukemia = tested on: RPMI-8226 leukemia
HS 578T breast = tested on: HS 578T breast
NCI-H23 lung = tested on: NCI-H23 lung
MCF7 breast = tested on: MCF7 breast
OVCAR-4 ovarian = tested on: OVCAR-4 ovarian
SW-620 colon = tested on: SW-620 colon
SNB-75 CNS = tested on: SNB-75 CNS
TK-10 renal = tested on: TK-10 renal
RXF 393 renal = tested on: RXF 393 renal
SNB-19 CNS = tested on: SNB-19 CNS
EKVX NSCLC = tested on: EKVX NSCLC
MDA-MB-231 breast = tested on: MDA-MB-231 breast
NCI/ADR-RES ovarian = tested on: NCI/ADR-RES ovarian
DU-145 prostate = tested on: DU-145 prostate
HCC-2998 colon = tested on: HCC-2998 colon
M14 melanoma = tested on: M14 melanoma
SF-268 CNS = tested on: SF-268 CNS
HOP-92 NSCLC = tested on: HOP-92 NSCLC
786-0 renal = tested on: 786-0 renal
SF-539 CNS = tested on: SF-539 CNS
IGROV1 ovarian = tested on: IGROV1 ovarian
ACHN renal = tested on: ACHN renal
UACC-257 melanoma = tested on: UACC-257 melanoma
T-47D breast = tested on: T-47D breast
MOLT-4 leukemia = tested on: MOLT-4 leukemia
HCT-15 colon = tested on: HCT-15 colon
UACC-62 melanoma = tested on: UACC-62 melanoma
UO-31 renal = tested on: UO-31 renal
HL-60(TB) leukemia = tested on: HL-60(TB) leukemia
SF-295 CNS = tested on: SF-295 CNS
HT29 colon = tested on: HT29 colon
NCI-H460 lung = tested on: NCI-H460 lung
PC-3 prostate = tested on: PC-3 prostate
BT-549 breast = tested on: BT-549 breast
OVCAR-8 ovarian = tested on: OVCAR-8 ovarian
SR leukemia = tested on: SR leukemia
K-562 leukemia = tested on: K-562 leukemia
HCT-116 colon = tested on: HCT-116 colon
COLO 205 colon = tested on: COLO 205 colon
LOX IMVI melanoma = tested on: LOX IMVI melanoma
SK-MEL-28 melanoma = tested on: SK-MEL-28 melanoma
MDA-MB-435 = tested on: MDA-MB-435
SK-MEL-2 melanoma = tested on: SK-MEL-2 melanoma
NCI-H226 lung = tested on: NCI-H226 lung
CCRF-CEM leukemia = tested on: CCRF-CEM leukemia
SK-MEL-5 melanoma = tested on: SK-MEL-5 melanoma
CAKI-1 renal = tested on: CAKI-1 renal
KM12 colon = tested on: KM12 colon
HOP-62 NSCLC = tested on: HOP-62 NSCLC
SK-OV-3 ovarian = tested on: SK-OV-3 ovarian
OVCAR-3 ovarian = tested on: OVCAR-3 ovarian
MALME-3M melanoma = tested on: MALME-3M melanoma
A549 NSCLC = tested on: A549 NSCLC
OVCAR-5 ovarian = tested on: OVCAR-5 ovarian
SN12C renal = tested on: SN12C renal
A498 renal = tested on: A498 renal
NCI-H522 lung = tested on: NCI-H522 lung

## N#Cc1ccc(C(O)C(F)(F)c2nc3ccccc3o2)cc1 (stereo unspecified)
U251 CNS
  TGI: > 100 µM
RPMI-8226 leukemia
  TGI: > 100 µM
HS 578T breast
  TGI: > 100 µM
NCI-H23 lung
  TGI: > 100 µM
MCF7 breast
  TGI: > 100 µM
OVCAR-4 ovarian
  TGI: > 100 µM
SW-620 colon
  TGI: > 100 µM
SNB-75 CNS
  TGI: > 100 µM
TK-10 renal
  TGI: > 100 µM
RXF 393 renal
  TGI: > 100 µM
SNB-19 CNS
  TGI: > 100 µM
EKVX NSCLC
  TGI: > 100 µM
MDA-MB-231 breast
  TGI: > 100 µM
NCI/ADR-RES ovarian
  TGI: > 100 µM
DU-145 prostate
  TGI: > 100 µM
HCC-2998 colon
  TGI: > 100 µM
M14 melanoma
  TGI: > 100 µM
SF-268 CNS
  TGI: > 100 µM
HOP-92 NSCLC
  TGI: > 100 µM
786-0 renal
  TGI: > 100 µM
SF-539 CNS
  TGI: > 100 µM
IGROV1 ovarian
  TGI: > 100 µM
ACHN renal
  TGI: > 100 µM
UACC-257 melanoma
  TGI: > 100 µM
T-47D breast
  TGI: > 100 µM
MOLT-4 leukemia
  TGI: > 100 µM
HCT-15 colon
  TGI: > 100 µM
UACC-62 melanoma
  TGI: > 100 µM
UO-31 renal
  TGI: > 100 µM
HL-60(TB) leukemia
  TGI: > 100 µM
SF-295 CNS
  TGI: > 100 µM
HT29 colon
  TGI: > 100 µM
NCI-H460 lung
  TGI: > 100 µM
PC-3 prostate
  TGI: > 100 µM
BT-549 breast
  TGI: > 100 µM
OVCAR-8 ovarian
  TGI: > 100 µM
SR leukemia
  TGI: > 100 µM
K-562 leukemia
  TGI: 45.7 µM
HCT-116 colon
  TGI: > 100 µM
COLO 205 colon
  TGI: > 100 µM
LOX IMVI melanoma
  TGI: > 100 µM
SK-MEL-28 melanoma
  TGI: > 100 µM
MDA-MB-435
  TGI: > 100 µM
SK-MEL-2 melanoma
  TGI: > 100 µM
NCI-H226 lung
  TGI: > 100 µM
CCRF-CEM leukemia
  TGI: > 100 µM
SK-MEL-5 melanoma
  TGI: > 100 µM
CAKI-1 renal
  TGI: > 100 µM
KM12 colon
  TGI: > 100 µM
HOP-62 NSCLC
  TGI: > 100 µM
SK-OV-3 ovarian
  TGI: > 100 µM

## CCOC(=O)c1cc(C(=O)c2ccc(OC)cc2)n2ccc(/C=C/c3cc[n+](CC(=O)c4ccc(OC)cc4)cc3)cc12
U251 CNS
  GI50: 1.68 µM
  TGI: 4.57 µM
RPMI-8226 leukemia
  GI50: 1.65 µM
  TGI: 4.85 µM
NCI-H23 lung
  GI50: 2.22 µM
  TGI: 5.5 µM
OVCAR-3 ovarian
  GI50: 1.52 µM
  TGI: 3 µM
MCF7 breast
  GI50: 1.51 µM
  TGI: 3.56 µM
OVCAR-4 ovarian
  GI50: 1.26 µM
  TGI: 2.94 µM
SW-620 colon
  GI50: 1.72 µM
  TGI: 4.02 µM
TK-10 renal
  GI50: 2.01 µM
  TGI: 5.76 µM
SNB-19 CNS
  GI50: 1.73 µM
  TGI: 4.06 µM
EKVX NSCLC
  GI50: 2.8 µM
  TGI: > 100 µM
MDA-MB-231 breast
  GI50: 1.58 µM
  TGI: 3.22 µM
NCI/ADR-RES ovarian
  GI50: > 100 µM
  TGI: > 100 µM
DU-145 prostate
  GI50: 2.05 µM
  TGI: 5.16 µM
M14 melanoma
  GI50: 1.77 µM
  TGI: 3.8 µM
SF-268 CNS
  GI50: 2.09 µM
  TGI: 4.52 µM
HOP-92 NSCLC
  GI50: 1.23 µM
  TGI: 3.15 µM
786-0 renal
  GI50: 1.98 µM
  TGI: 3.94 µM
IGROV1 ovarian
  GI50: 1.74 µM
  TGI: 4.46 µM
T-47D breast
  GI50: 1.91 µM
  TGI: 4.43 µM
MOLT-4 leukemia
  GI50: 1.91 µM
  TGI: 5.53 µM
HCT-15 colon
  GI50: 5.67 µM
  TGI: > 100 µM
UO-31 renal
  GI50: > 100 µM
  TGI: > 100 µM
HL-60(TB) leukemia
  GI50: 1.78 µM
  TGI: 4.24 µM
SF-295 CNS
  GI50: > 100 µM
  TGI: > 100 µM
HT29 colon
  GI50: 1.81 µM
  TGI: 4.55 µM
NCI-H460 lung
  GI50: 1.56 µM
  TGI: 3.56 µM
PC-3 prostate
  GI50: 2.03 µM
  TGI: 5.96 µM
MALME-3M melanoma
  GI50: 1.67 µM
  TGI: 3.66 µM
OVCAR-8 ovarian
  GI50: 2.02 µM
  TGI: 8.32 µM
SR leukemia
  GI50: 0.367 µM
  TGI: 2.29 µM
K-562 leukemia
  GI50: 0.567 µM
  TGI: 3.31 µM
HCT-116 colon
  GI50: 1.55 µM
  TGI: 3.36 µM
LOX IMVI melanoma
  GI50: 1.51 µM
  TGI: 3.66 µM
A549 NSCLC
  GI50: 3.96 µM
  TGI: > 100 µM
SK-MEL-28 melanoma
  GI50: 1.87 µM
  TGI: 3.69 µM
HOP-62 NSCLC
  GI50: 3.4 µM
  TGI: 36.8 µM
SK-OV-3 ovarian
  GI50: > 100 µM
  TGI: > 100 µM

## C[C@@H](Oc1cc(-n2cnc3ccc(OC4CCN(C)CC4)cc32)sc1C(N)=O)c1ccccc1Cl
U251 CNS
  GI50: 0.0155 µM
  TGI: 4.13 µM
RPMI-8226 leukemia
  GI50: 0.0842 µM
  TGI: 6.66 µM
HS 578T breast
  GI50: 0.0419 µM
  TGI: 0.597 µM
NCI-H23 lung
  GI50: 0.0183 µM
  TGI: 5.18 µM
OVCAR-3 ovarian
  GI50: 0.00858 µM
  TGI: 3.2 µM
MCF7 breast
  GI50: 0.00884 µM
  TGI: 3.92 µM
OVCAR-4 ovarian
  GI50: 1.62 µM
  TGI: 9.09 µM
SW-620 colon
  GI50: 0.00875 µM
  TGI: 3.48 µM
SNB-75 CNS
  GI50: 0.0614 µM
  TGI: 2.89 µM
TK-10 renal
  GI50: 1.79 µM
  TGI: 5.75 µM
RXF 393 renal
  GI50: 0.0112 µM
  TGI: 3.53 µM
SNB-19 CNS
  GI50: 0.07 µM
  TGI: 13.2 µM
MDA-MB-231 breast
  GI50: 0.0225 µM
  TGI: 0.53 µM
NCI/ADR-RES ovarian
  GI50: 0.0955 µM
  TGI: 3.58 µM
HCC-2998 colon
  GI50: 0.0234 µM
  TGI: 2.98 µM
OVCAR-5 ovarian
  GI50: 0.024 µM
  TGI: 5.76 µM
SF-268 CNS
  GI50: 0.022 µM
  TGI: 4.69 µM
SN12C renal
  GI50: 0.255 µM
  TGI: 4.75 µM
HOP-92 NSCLC
  GI50: 0.0387 µM
  TGI: 2.78 µM
786-0 renal
  GI50: 0.0951 µM
  TGI: 3.48 µM
SF-539 CNS
  GI50: 0.0564 µM
  TGI: 2.29 µM
IGROV1 ovarian
  GI50: 0.0622 µM
  TGI: 6.88 µM
ACHN renal
  GI50: 0.212 µM
  TGI: 9.19 µM
UACC-257 melanoma
  GI50: 0.0249 µM
  TGI: 5.4 µM
T-47D breast
  GI50: 3.57 µM
  TGI: 8.73 µM
MOLT-4 leukemia
  GI50: 0.0123 µM
  TGI: 5.19 µM
HCT-15 colon
  GI50: 0.0827 µM
  TGI: 3.55 µM
UACC-62 melanoma
  GI50: 0.033 µM
  TGI: 4.62 µM
A498 renal
  GI50: 0.0403 µM
  TGI: 0.301 µM
UO-31 renal
  GI50: 1.74 µM
  TGI: 5.95 µM
HL-60(TB) leukemia
  GI50: 0.00871 µM
  TGI: 2.92 µM
SF-295 CNS
  GI50: 0.0207 µM
  TGI: 4.34 µM
HT29 colon
  GI50: 0.00829 µM
  TGI: 2.77 µM
NCI-H460 lung
  GI50: 0.0126 µM
  TGI: 3.19 µM
PC-3 prostate
  GI50: 0.0153 µM
  TGI: 6.02 µM
BT-549 breast
  GI50: 0.168 µM
  TGI: 5.28 µM
MALME-3M melanoma
  GI50: 3.89 µM
  TGI: 7.89 µM
OVCAR-8 ovarian
  GI50: 0.0197 µM
  TGI: 3.36 µM
SR leukemia
  GI50: 0.0103 µM
  TGI: 0.532 µM
K-562 leukemia
  GI50: 0.0102 µM
  TGI: 4.9 µM
HCT-116 colon
  GI50: 0.0156 µM
  TGI: 3.15 µM
COLO 205 colon
  GI50: 0.00926 µM
  TGI: 0.106 µM
LOX IMVI melanoma
  GI50: 0.0146 µM
  TGI: 3.69 µM
NCI-H522 lung
  GI50: 0.0117 µM
  TGI: 5.03 µM
A549 NSCLC
  GI50: 0.0183 µM
  TGI: 3 µM
MDA-MB-435
  GI50: 0.00549 µM
  TGI: 0.0159 µM
NCI-H226 lung
  GI50: 0.289 µM
  TGI: 5.49 µM
CCRF-CEM leukemia
  GI50: 0.00953 µM
  TGI: 4.19 µM
SK-MEL-5 melanoma
  GI50: 0.0306 µM
  TGI: 0.777 µM
CAKI-1 renal
  GI50: 1.08 µM
  TGI: 6.08 µM
KM12 colon
  GI50: 0.00886 µM
  TGI: 2.97 µM
HOP-62 NSCLC
  GI50: 0.0166 µM
  TGI: 3.29 µM
SK-OV-3 ovarian
  GI50: 0.0216 µM
  TGI: 2.8 µM
